We go through 6 molecules from patent US7932266B2, “Isoquinoline derivatives as calpain inhibitors” (Consejo Superior de Investigaciones Cientificas, priority 2004, dated 2011).

Series [1] deals with T1, calpain I from porcine erythrocyte (Sus scrofa, UniProt P35750).
T1 construct: calpain I from porcine erythrocyte (Calbiochem, Cat No 208712) was used as enzyme; purchased Calbiochem 208712; host or cells: porcine erythrocyte (natural source)
T1 sequence (P35750 1-714): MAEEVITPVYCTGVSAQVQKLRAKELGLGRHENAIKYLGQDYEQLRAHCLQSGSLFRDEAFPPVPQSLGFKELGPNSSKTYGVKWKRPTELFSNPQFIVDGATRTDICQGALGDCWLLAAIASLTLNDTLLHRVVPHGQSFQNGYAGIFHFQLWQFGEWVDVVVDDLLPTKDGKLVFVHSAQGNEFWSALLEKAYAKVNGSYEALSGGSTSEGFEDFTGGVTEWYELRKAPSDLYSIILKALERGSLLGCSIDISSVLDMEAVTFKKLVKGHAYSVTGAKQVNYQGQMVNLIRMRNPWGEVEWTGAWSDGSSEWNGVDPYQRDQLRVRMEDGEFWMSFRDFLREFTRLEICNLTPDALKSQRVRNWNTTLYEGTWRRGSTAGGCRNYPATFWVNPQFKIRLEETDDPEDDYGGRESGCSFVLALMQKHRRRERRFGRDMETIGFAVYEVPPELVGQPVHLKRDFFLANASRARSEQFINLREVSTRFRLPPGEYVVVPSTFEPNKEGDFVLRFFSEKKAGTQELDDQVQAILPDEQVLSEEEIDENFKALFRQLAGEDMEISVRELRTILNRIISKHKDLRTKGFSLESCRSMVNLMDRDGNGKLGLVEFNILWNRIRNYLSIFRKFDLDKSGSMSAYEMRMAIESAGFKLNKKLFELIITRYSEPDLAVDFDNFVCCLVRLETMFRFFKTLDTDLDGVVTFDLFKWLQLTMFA
T1 sequence (P04574 1-266 partner): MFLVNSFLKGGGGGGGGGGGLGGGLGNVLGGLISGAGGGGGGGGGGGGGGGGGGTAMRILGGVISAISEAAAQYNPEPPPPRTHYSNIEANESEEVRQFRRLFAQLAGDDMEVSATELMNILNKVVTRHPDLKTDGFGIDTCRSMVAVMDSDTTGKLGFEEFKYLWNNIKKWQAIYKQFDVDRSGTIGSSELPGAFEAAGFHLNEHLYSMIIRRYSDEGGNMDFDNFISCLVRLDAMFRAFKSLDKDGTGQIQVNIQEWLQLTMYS
As to the kind of experiment: Enzyme activity test: inhibition of calpain (fluorimetric, BODIPY-FL casein substrate). Type of series: biochemical. To be noted: 7 inhibitor concentrations between 10 nM and 200 μM. The text has this: The capacity to inhibit calpain has been quantified in terms of the value of IC50, which is defined as the concentration of inhibitor that reduces the catalytic activity of an enzyme by half. The lower the value of IC50, the more powerful the inhibitor. Inhibition results on calpain I (the most relevant from a physiological point of view) of some compounds of the present invention are shown in table 1 and in FIG. 1. Given that calpain II, also known as milli-calpain, needs a greater amount of Ca^2+ for activation, it might not possibly have such a relevant physiological role since such a concentration of Ca^2+ would cause cell death before the milli-calpain could become activated. For this reason, the inhibition tests have been performed for calpain I, though they can be extrapolated for calpain II.
The calpain inhibition capacity has been quantified in terms of the value of IC50, which is defined as the concentration of inhibitor that reduces the catalytic activity of an enzyme by half. The lower the value of IC50, the more powerful the inhibitor. Inhibition results on calpain I (the most relevant from a physiological point of view) of some compounds of the present invention are shown in table 1 and in FIG. 1.
The experiments were conducted spectrofluorimetrically using a Spectrofluor Tecan Corp 93382 spectrofluorimeter, exciting at […] and measuring at […]. Casein marked with BODIPY-FL® (Molecular Probes) was used as substrate and calpain I from porcine erythrocyte (Calbiochem, Cat No 208712) was used as enzyme. The freeze-dried substrate is component A of the protease assay kit EnzChek® green fluorescence from Molecular Probes (reference # E-6638); component B, known as 20× digestion buffer, contains 13 mL of 200 mM Tris-HCl, pH 7.8 and 2 mM sodium azide. The commercial calpain I that was used has a concentration of 1 mg in 1 mL of aqueous solution (the solution is 20 mM imidazol-HCl, pH 6.8, 1 mM EDTA, 1 mM EGTA, 5 mM β-mercaptoethanol, containing 30% glycerine).
2.5 mL of 20× digestion buffer (component B of the kit from Molecular Probes) was diluted with water to a total volume of 50 mL.
200 μg of freeze-dried substrate (component A of the kit from Molecular Probes) was dissolved in 200 μL of phosphate saline buffer. This solution was decanted into a graduated flask and diluted with the digestion solution to a total volume of 40 mL.
20 μL of commercial solution of calpain was diluted with the digestion solution to a total volume of 200 μL.
The inhibitor was dissolved in DMSO. Each inhibitor was assayed at 7 different concentrations between 10 nM and 200 μM.
All the data were obtained measuring the variation in fluorescence with time. The use of a multi-cell device and Eppendorf multi-channel pipettes permitted measurement of the variation in fluorescence in up to 64 experiments. In this way, the control experiment and the experiments with the different concentrations of inhibitor was carried out in the same set of measurements. All the experiments were conducted twice.
The control experiment was carried out mixing 180 μL of casein solution and 5 μL of calpain solution. The reaction was initiated by the addition of 10 μL of a 50 μM solution of CaCl2 in water, and the fluorescence was measured from the moment of the addition of Ca^2+ (time=0) and for 250-300 seconds (measuring during 20 kinetic cycles). The variation in fluorescence (ΔF) was represented against time (t). In order to test the effect of DMSO on enzyme activity, additional control experiments were conducted adding DMSO (in the quantities used in the experiments with the inhibitors), with the same result being obtained as in the control experiment.
180 μL of casein solution, 5 μL of calpain solution and 5 μL of inhibitor solution (of variable concentration) were mixed together. […]

For the next series, the system named is calpain. As to the kind of experiment: Calpain inhibition, first results on earlier isoquinoline derivatives. Type of series: biochemical. To be noted: simple derivative of isoquinoline without peptide chain; applicant's first results.

SMILES strings stand for the structures.

Broadly, the IC50 is the midpoint of a concentration-inhibition curve. Higher therefore signals lower potency. For orientation: melting point means the temperature of the solid-liquid transition. As to `CC[C@H](C)[C@@H]1NC(=O)c2ccccc2/C1=C/C(=O)NCc1ccccc1` [Compound 15, (S,S,Z)-N-benzyl-2-(3-sec-butyl-1-oxo-2,3-dihydro-1H-isoquinolin-4-yliden)-acetamide], the melting point fell in the range of 90 to 94 °C. In series [1], this molecule registered an IC50 of 140 µM.
On to `COC(=O)/C=C1/c2ccccc2C(=O)N[C@H]1C(C)C` [Compound 3], for which the “activity as calpain inhibitor” value in the series with calpain was “not calpain inhibitors”.
In turn, `CC[C@H](C)[C@@H]1NC(=O)c2ccccc2/C1=C/C(=O)Nc1cccc(C(C)=O)c1` [Compound 16, (S,S,Z)-N-(3-acetyl-phenyl)-2-(3-sec-butyl-1-oxo-2,3-dihydro-1H-isoquinolin-4-yliden)-acetamide] yielded a melting point of 147 to 151 °C. The IC50 in series [1] is 130 µM.
In turn, `CC[C@H](C)[C@H](NC(=O)OCC1c2ccccc2-c2ccccc21)C(=O)Nc1ccccc1-c1ccccc1NC(=O)/C=C1/c2ccccc2C(=O)N[C@H]1[C@@H](C)CC` [Compound 21, (S,S,S,S,Z)-9H-fuorene-9-ylmethyl (1-{2′-[2-(3-sec-butyl-1-oxo-2,3-dihydro-1 H-isoquinolin-4-yliden)-acetylamino]-biphenyl-2-ylcarbamoyl}-2-methyl-butyl)-carbamate] registered a melting point of 116 to 120 °C. For the same molecule, the IC50 in series [1] is 5 µM.
`CC[C@H](C)[C@@H]1NC(=O)c2ccccc2/C1=C/C(=O)Nc1ccccc1-c1ccccc1NC(=O)[C@@H](N)C(C)C` [Compound 22, (S,S,S,Z)-2-amino-N-{2′-[2-(3-sec-butyl-1-oxo-2,3-dihydro-1H-isoquinolin-4-yliden)-acetylamino]-biphenyl-2-yl}-3-methyl-butyramide]: the melting point lay within 110 to 113 °C. Further, in series [1], the IC50 amounted to 17 µM.
Molecule `CC[C@H](C)[C@H](NC(=O)/C=C1/c2ccccc2C(=O)N[C@H]1[C@@H](C)CC)C(=O)N[C@H](C(=O)N[C@H](C(=O)OC)[C@@H](C)CC)[C@@H](C)CC` [Compound 26, methyl (S,S,S,S,S,S,S,S,S,Z)-2-(2-{2-[2-(3-sec-butyl-1-oxo-2,3-dihydro-1H-isoquinolin-4-yliden)-acetylamino]-3-methyl-pentanoylamino}-3-methyl-pentanoylamino)-3-methyl-pentanoate] came in with a melting point of 151 to 154 °C. Moreover, in series [1], the half-maximal inhibitory concentration (IC50) was 0.159 µM.
